# Assay results as given in patent US9695155B2, “Herbicidal substituted pyrimidinyloxy benzene compounds” (E. I. DU PONT DE NEMOURS AND COMPANY, priority 2013, dated 2017).
# Experiments:
# soybean [1] = experiment: Test C postemergence; assay type: in vivo, Glycine max; conditions: Glycine max, post-emergence
# Summary of the method: (§1)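 Sown in loam/sand → sprayed pre-emergence; or grown to 1–4 leaves in peat mix → sprayed post-emergence. Same solvent/surfactant formulation both ways. Greenhouse 13–15 d. Score 0–100 visual.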
# barnyardgrass [2] = experiment: Test C preemergence; assay type: in vivo, Echinochloa crus-galli; conditions: Echinochloa crus-galli, pre-emergence
# Summary of the method: as §1
# oilseed rape = experiment: Test C postemergence; assay type: in vivo, Brassica napus; conditions: Brassica napus, post-emergence
# Summary of the method: as §1
# rice = experiment: Test B flooded paddy test; assay type: in vivo, Oryza sativa; conditions: Oryza sativa; Flood, 250 g ai/ha; 0 to 100 scale where 0 is no effect and 100 is complete control; read-out: Plant response rating, Rice
# Summary of the method: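 Greenhouse flooded-pot test: compounds dosed into 3 cm standing water over 2-leaf plants, flood held constant. Rated visually after 13–15 days on 0–100 (complete control = 100); a dash marks no test result.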
# ragweed = experiment: Test C postemergence; assay type: in vivo, Ambrosia elatior; conditions: Ambrosia artemisiifolia, post-emergence
# Summary of the method: as §1
# barnyardgrass [3] = experiment: Test A preemergence; assay type: in vivo, Echinochloa crus-galli; conditions: Echinochloa crus-galli, pre-emergence, 240 h, 0 to 100 scale where 0 is no effect and 100 is complete control
# Summary of the method: (§2)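 Injury scores run from 0, no effect, to 100, complete control, judged by eye against untreated plants roughly 10 days after treatment. Chemicals carried a surfactant in a non-phytotoxic solvent and went onto loam–sand soil preemergence or onto one- to two-leaf seedlings postemergence.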
# soybean [4] = experiment: Test C preemergence; assay type: in vivo, Glycine max; conditions: Glycine max, pre-emergence, preemergence, read-out: Soybean plant response rating
# Summary of the method: as §1
# wheat, winter = experiment: Test C preemergence; assay type: in vivo, Triticum aestivum; conditions: Triticum aestivum, pre-emergence, preemergence, read-out: Wheat plant response rating
# Summary of the method: as §1
# blackgrass [5] = experiment: Test C postemergence; assay type: in vivo, Alopecurus myosuroides; conditions: Alopecurus myosuroides, post-emergence
# Summary of the method: as §1
# large (Lg) crabgrass = experiment: Test C preemergence; assay type: in vivo, Digitaria sanguinalis; conditions: Digitaria sanguinalis, pre-emergence
# Summary of the method: as §1
# blackgrass [6] = experiment: Test C preemergence; assay type: in vivo, Alopecurus myosuroides; conditions: Alopecurus myosuroides, pre-emergence
# Summary of the method: as §1
# giant foxtail = experiment: Test C postemergence; assay type: in vivo, Setaria faberii; conditions: Setaria faberi, post-emergence
# Summary of the method: as §1
# wheat = experiment: Test A postemergence; assay type: in vivo, Triticum aestivum; conditions: Triticum aestivum, post-emergence, 240 h, 0 to 100 scale where 0 is no effect and 100 is complete control
# Summary of the method: as §2
# [7] = 16 g ai/ha, scale 0 to 100 (0 no effect, 100 complete control)
# [8] = 62 g ai/ha, scale 0 (no effect) to 100 (complete control)
# [9] = 125 g ai/ha, scale 0 (no effect) to 100 (complete control)
smiles,measurement,setting,value
"FC(F)(F)COc1cnn(-c2ccccc2Oc2ncc(Cl)cn2)c1 [Compound 138, 5-chloro-2-[2-[4-(2,2,2-trifluoroethoxy)-1H-pyrazol-1-yl]phenoxy]pyrimidine]","Soybean plant response rating (crop injury, 0-100 scale) at 16 g/ha","soybean [1]; 16 g ai/ha, postemergence, 0 is no effect, 100 is complete control",40%
same,"Soybean plant response rating (crop injury, 0-100 scale) at 125 g/ha","soybean [1]; 125 g ai/ha, postemergence, visual rating, scale 0 to 100 (0 no effect, 100 complete control), read-out: Plant response rating, Soybean",95%
same,"Soybean plant response rating (crop injury, 0-100 scale) at 62 g/ha","soybean [1]; Postemergence, 62 g ai/ha, scale 0 to 100 (0 no effect, 100 complete control)",65%
same,pest or weed control at 16 g/ha,"barnyardgrass [2]; 16 g ai/ha, preemergence, scale 0 to 100 (0 no effect, 100 complete control), read-out: Barnyardgrass plant response rating",10%
same,pest or weed control at 62 g/ha,"barnyardgrass [2]; 62 g ai/ha, preemergence, scale 0 (no effect) to 100 (complete control), read-out: Barnyardgrass plant response rating",65%
same,pest or weed control at 125 g/ha,"barnyardgrass [2]; 125 g ai/ha, preemergence, scale 0 (no effect) to 100 (complete control), read-out: Barnyardgrass plant response rating",95%
same,pest or weed control at 31 g/ha,"barnyardgrass [2]; Preemergence, 31 g ai/ha, scale 0 to 100, 0 no effect, 100 complete control, read-out: Plant response rating, Barnyardgrass",25%
same,plant injury at 16 g/ha,"oilseed rape; 16 g ai/ha, postemergence, 0 is no effect, 100 is complete control, read-out: Plant response rating (0 to 100), Oilseed Rape",5%
same,plant injury at 125 g/ha,"oilseed rape; 125 g ai/ha, postemergence, visual rating, scale 0 to 100 (0 no effect, 100 complete control), read-out: Plant response rating, Oilseed Rape",80%
same,plant injury at 62 g/ha,"oilseed rape; Postemergence, 62 g ai/ha, scale 0 to 100 (0 no effect, 100 complete control), read-out: Plant response rating, Oilseed Rape",60%
same,plant injury at 250 g/ha,rice,0%
same,pest or weed control at 16 g/ha,"ragweed; 16 g ai/ha, postemergence, 0 is no effect, 100 is complete control, read-out: Plant response rating (0 to 100), Ragweed",40%
same,pest or weed control at 125 g/ha,"ragweed; 125 g ai/ha, postemergence, visual rating, scale 0 to 100 (0 no effect, 100 complete control), read-out: Plant response rating, Ragweed",45%
same,pest or weed control at 62 g/ha,"ragweed; Postemergence, 62 g ai/ha, scale 0 to 100 (0 no effect, 100 complete control), read-out: Plant response rating, Ragweed",40%
same,pest or weed control at 125 g/ha,"barnyardgrass [3]; 125 g ai/ha, read-out: Plant response rating, Barnyardgrass",80%
same,pest or weed control at 500 g/ha,"barnyardgrass [3]; 500 g ai/ha, read-out: Barnyardgrass plant response rating",100%
same,plant injury at 16 g/ha,soybean [4]; [7],20%
same,plant injury at 62 g/ha,soybean [4]; [8],90%
same,plant injury at 125 g/ha,soybean [4]; [9],90%
same,plant injury at 16 g/ha,"wheat, winter; [7]",0%
same,plant injury at 62 g/ha,"wheat, winter; [8]",5%
same,plant injury at 125 g/ha,"wheat, winter; [9]",5%
same,pest or weed control at 16 g/ha,"blackgrass [5]; 16 g ai/ha, postemergence, 0 is no effect, 100 is complete control, read-out: Plant response rating (0 to 100), Blackgrass",0%
same,pest or weed control at 125 g/ha,"blackgrass [5]; 125 g ai/ha, postemergence, visual rating, scale 0 to 100 (0 no effect, 100 complete control), read-out: Plant response rating, Blackgrass",10%
same,pest or weed control at 31 g/ha,"blackgrass [5]; Postemergence, 31 g ai/ha, scale 0 to 100 (0 no effect, 100 complete control), 13 to 15 days, read-out: Plant response rating, Blackgrass",5%
same,pest or weed control at 62 g/ha,"blackgrass [5]; Postemergence, 62 g ai/ha, scale 0 to 100 (0 no effect, 100 complete control), read-out: Plant response rating, Blackgrass",5%
same,pest or weed control at 16 g/ha,"large (Lg) crabgrass; 16 g ai/ha, preemergence, scale 0 to 100 (0 no effect, 100 complete control), read-out: Crabgrass, Large plant response rating",100%
same,pest or weed control at 62 g/ha,"large (Lg) crabgrass; 62 g ai/ha, preemergence, scale 0 (no effect) to 100 (complete control), read-out: Crabgrass, Large plant response rating",100%
same,pest or weed control at 125 g/ha,"large (Lg) crabgrass; 125 g ai/ha, preemergence, scale 0 (no effect) to 100 (complete control), read-out: Crabgrass, Large plant response rating",100%
same,pest or weed control at 31 g/ha,"large (Lg) crabgrass; Preemergence, 31 g ai/ha, scale 0 to 100, 0 no effect, 100 complete control, read-out: Plant response rating, Crabgrass, Large",90%
same,pest or weed control at 16 g/ha,"blackgrass [6]; 16 g ai/ha, preemergence, scale 0 to 100 (0 no effect, 100 complete control), read-out: Blackgrass plant response rating",5%
same,pest or weed control at 62 g/ha,"blackgrass [6]; 62 g ai/ha, preemergence, scale 0 (no effect) to 100 (complete control), read-out: Blackgrass plant response rating",80%
same,pest or weed control at 125 g/ha,"blackgrass [6]; 125 g ai/ha, preemergence, scale 0 (no effect) to 100 (complete control), read-out: Blackgrass plant response rating",90%
same,pest or weed control at 31 g/ha,"blackgrass [6]; Preemergence, 31 g ai/ha, scale 0 to 100, 0 no effect, 100 complete control, read-out: Plant response rating, Blackgrass",20%
same,pest or weed control at 16 g/ha,"giant foxtail; 16 g ai/ha, postemergence, 0 is no effect, 100 is complete control, read-out: Plant response rating (0 to 100), Foxtail, Giant",5%
same,pest or weed control at 125 g/ha,"giant foxtail; 125 g ai/ha, postemergence, visual rating, scale 0 to 100 (0 no effect, 100 complete control), read-out: Plant response rating, Foxtail, Giant",50%
same,pest or weed control at 62 g/ha,"giant foxtail; Postemergence, 62 g ai/ha, scale 0 to 100 (0 no effect, 100 complete control), read-out: Plant response rating, Foxtail, Giant",10%
same,plant injury at 125 g/ha,"wheat; 125 g ai/ha, read-out: Wheat plant response rating",50%
same,plant injury at 500 g/ha,"wheat; 500 g ai/ha, read-out: Plant response rating, Wheat",90%
